Experimental data published in article PMC11440508, “Dually Labeled Neurotensin NTS1R Ligands for Probing Radiochemical and Fluorescence-Based Binding Assays” (Journal of Medicinal Chemistry, 2024).

Target: NTS1R (Homo sapiens, UniProt P30989)
Test: Fluorescence anisotropy (FA) equilibrium saturation binding at hNTS1R-displaying BBVs
Set-up: NlucC (C-terminal fragment of nanoluciferase, 11 amino acids) (C); made in house; host or cells: Sf9 insect cells, baculovirus (pIMACE-CMVintP10-hNTS1R-Nluc, DH10MultiBac); budded baculovirus particles
Details: NTS1R-BBV, 27 °C
Experimental: FA-based NTS1R binding studies with 13 and 18 were performed at hNTS1R displaying budded baculovirus particles (termed BBVs below), which were obtained from Sf9 insect cells following the procedure reported for the preparation of neuropeptide Y Y1R displaying BBVs.[61] The obtained viruses were collected by centrifugation at 1600g for 10 min, and the virus titer was determined with an image-based cell-size estimation assay as described elsewhere.[62] The viruses were amplified using a multiplicity of infection (MOI) between 0.01 and 0.1 until a high-titer baculovirus stock (virus concentration of at least 1.0 × 10^8 infectious viral particles/mL) was acquired. To produce BBV preparations with a high receptor density, Sf9 cells with a density of 1.9 × 10^6 cells/mL were infected with an MOI of 3 and the BBVs were collected by centrifugation 63 h after the infection, when the cell viability was <30%. […]
FA measurements were performed with a Synergy NEO multimode plate reader (BioTek, Winooski, VT) and black, half area, flat bottom polystyrene nonbinding surface (NBS) 96-well plates (product no. 3993; Corning, Corning, NY). Polarizing excitation (530 ± 15 nm) and dual emission (590 ± 17.5 nm) filters with a dichroic mirror were used, allowing the simultaneous detection of parallelly and perpendicularly polarized fluorescence emission after polarizing beam splitter. […]

Sequence of NTS1R (P30989 whole entry): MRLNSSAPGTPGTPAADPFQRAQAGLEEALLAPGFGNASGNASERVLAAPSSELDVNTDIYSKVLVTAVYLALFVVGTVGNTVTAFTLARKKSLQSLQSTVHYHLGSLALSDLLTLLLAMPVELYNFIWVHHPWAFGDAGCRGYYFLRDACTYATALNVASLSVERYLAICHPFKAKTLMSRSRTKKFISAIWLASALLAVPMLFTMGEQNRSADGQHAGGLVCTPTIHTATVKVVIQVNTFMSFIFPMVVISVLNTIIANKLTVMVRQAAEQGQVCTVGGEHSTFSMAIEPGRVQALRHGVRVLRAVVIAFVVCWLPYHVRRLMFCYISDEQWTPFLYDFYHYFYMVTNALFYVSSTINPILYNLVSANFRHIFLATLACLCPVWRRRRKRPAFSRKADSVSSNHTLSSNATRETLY

Row | SMILES | Kd [nM]
1 | CCC(=O)NCCCCNC(=O)NC(=N)NCCC[C@H](NC(=O)[C@@H]1CCCN1C(=O)[C@@H](NC(=O)CCc1cn(CCCNC(=O)CCC#Cc2ccc3c(c2)C(C)(C)C2=C4C=C5C6=[N+](CCC5OC4CCN23)c2ccc(S(=O)(=O)[O-])cc2C6(C)C)nn1)C1CCNCC1)C(=O)N[C@@H](CCCNC(=N)N)C(=O)N1CCC[C@H]1C(=O)N[C@H](C(=O)N[C@H](C(=O)N[C@@H](CC(C)C)C(=O)O)[C@@H](C)CC)C(C)(C)c1ccc(O)cc1 (stereo partly drawn) [Compound 18, N^α-(3-(N-(1-(8-Sulfonato-5,5,27,27-tetramethyl-16-oxa-20-aza-12-azoniaheptacyclo[15.11.0.03,15.04,12.06,11.020,28.021,26]octacosa-1(28),2,4(12),6(11),7,9,21(26),22,24-nonaen-24-yl)-5-oxopentyn-5-yl)-1-aminoprop-3-yl-1H-1,2,3-triazol-4-yl)propanoyl)-2-(piperidin-4-yl)-Gly-Pro-N^ω-[(4-(N-propanoyl)aminobutyl)aminocarbonyl]Arg-Arg-Pro-β,β-dimethyl-L-Tyr-Ile-Leu Tris(hydrotrifluoroacetate)] | 1.5 ± 0.1
2 | CCC(=O)NCCCCNC(=O)N=C(N)NCCC[C@H](NC(=O)[C@@H]1CCCN1C(=O)[C@@H](NC(=O)CCc1cn(CCCNC(=O)c2ccc(-c3c4ccc(=[N+](C)C)cc-4oc4cc(N(C)C)ccc34)c(C(=O)[O-])c2)nn1)C1CCNCC1)C(=O)N[C@@H](CCCNC(=N)N)C(=O)N1CCC[C@H]1C(=O)N[C@@H](Cc1ccc(O)cc1)C(=O)N[C@H](C(=O)N[C@@H](CC(C)C)C(=O)O)[C@@H](C)CC [Compound 13, N^α-(3-(1-N-((1-Carboxylato-2-(6-(dimethylamino)-3-(dimethyliminio)-3H-xanthen-9-yl)phen-5-yl)1-oxomethyl)aminoprop-3-yl-1H-1,2,3-triazol-4-yl)propanoyl)-2-(piperidin-4-yl)-Gly-Pro-N^ω-[(4-(N-propanoyl)aminobutyl)aminocarbonyl]Arg-Arg-Pro-Tyr-Ile-Leu Tris(hydrotrifluoroacetate)] | 1.3 ± 0.1
